Results reported in paper PMC10319809, “Chronic UCN2 treatment desensitizes CRHR2 and improves insulin sensitivity” (Nature Communications, 2023).
“And” between values parts separate entries of the source, which are not always exact repeats. Equal values may be shown once. Where no end group is shown, it is not given here.

Assays:
hCRHR2α G13 = target: T1, hCRHR2α G13 (Homo sapiens, UniProt Q13324); assay: ebBRET EMTA, G13 biosensor; format: cell-based; conditions: HEK293 cells, CRHR2a, n = 2 independent experiments
T1 construct: expressed in transfected cells; host or cells: HEK293 cells (Millipore Sigma), transient PEI co-transfection with biosensor plasmids at Domain Therapeutics
T1 sequence (Q13324 1-411): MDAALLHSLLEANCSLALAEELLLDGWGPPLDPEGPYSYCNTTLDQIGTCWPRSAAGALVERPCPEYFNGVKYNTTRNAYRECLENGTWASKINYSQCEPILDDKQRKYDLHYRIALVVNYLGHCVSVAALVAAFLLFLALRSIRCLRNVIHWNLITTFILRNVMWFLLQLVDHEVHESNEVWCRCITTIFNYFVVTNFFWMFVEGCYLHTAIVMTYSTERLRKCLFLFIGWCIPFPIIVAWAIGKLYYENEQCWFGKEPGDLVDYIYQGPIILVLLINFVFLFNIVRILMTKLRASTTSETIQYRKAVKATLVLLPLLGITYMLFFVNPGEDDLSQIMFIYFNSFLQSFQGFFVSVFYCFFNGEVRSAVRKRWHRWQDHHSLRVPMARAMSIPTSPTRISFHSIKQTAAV
Procedure: Typically, GPCR desensitization is carried out through the recruitment of β-Arrestins or alternative G-proteins to the receptor. To identify whether these proteins are recruited to CRHR2 in response to UCN2, enhanced bystander bioluminescence resonance energy transfer (ebBRET)-based effector membrane translocation assays (EMTA) were carried out in HEK293 cells[28],[29]. Cells were co-transfected with plasmids expressing unmodified CRHR2a (alpha isoform) and one of various pathway-specific biosensors. […]
Effector membrane translocation biosensor assays (bioSensAll®) were conducted at Domain Therapeutics NA Inc. (Montreal, QC, Canada) and described in cells[28],[29]. […] Briefly, DNA and PEI were diluted separately in 150 mM NaCl, mixed and then incubated for at least 20 min at room temperature (note: salmon sperm DNA (Invitrogen) was used to adjust the total amount of DNA transfected to a final quantity of 1 ug per mL of cell culture to be transfected). During the 20-minute incubation, HEK293 cells were detached, counted and resuspended into cell culture medium to a final density of 350,000 cells per mL. […] Cells were then incubated at room temperature for 10 min and BRET readings subsequently collected with a 0.4 s integration time on a Synergy NEO plate reader (BioTek Instruments, Inc., USA; filters: 400 nm/70 nm, 515 nm/20 nm). […]

[1] = Circulating (serum/plasma) UCN2 by ELISA; format: in vivo, mouse
Procedure: Plasma UCN2 and UCN3 measurements were made via ELISA according to manufacturer’s instructions (Kamiya Biomedical Company, Seattle, WA). Blood was collected via intracardiac stick. For ob/ob and db/db studies, blood was collected during ad lib feeding. For acute UCN2 dosing, blood was collected 20 min after dosing with UCN2 (Bachem, Bubendorf, Switzerland) dissolved in saline.

IVLSLDVPIGLLQILLEQARARAAREQATTNARILARVGHC-NH2 (C-terminus assumed) [UCN2, Urocortin 2]
G13 recruitment (hCRHR2α G13): not recruited | Serum [UCN2] ([1]; WT mice, 20 min after 1 mg/kg UCN2 IP, individual animals (Fig. 2A)): -7.638 log[M] and -7.693 log[M] and -7.457 log[M] and -7.301 log[M] and -7.207 log[M] and -7.27 log[M] and -7.25 log[M] and -7.2975 log[M] | circulating concentration of UCN2, average ([1]; mice, single IP 1 mg/kg, 20 min after injection, n = 8): −7.4 log[M] | level at time molar at 20 min ([1]; mouse, plasma, mice, single IP 1 mg/kg, 20 min after injection, n = 8, read-out: circulating concentration of UCN2, average): 40 nM
